Data reported in patent publication US11247965B2 (VenatoRx Pharmaceuticals, Inc., priority 2017, dated 2022).

Columns and labels:
[1] = system: HBV replication in HepAD38 cells; assay: Anti-HBV activity in HepAD38 cells, extracellular HBV DNA by QPCR; type: cell-based, HBV (genotype D, serotype ayw); settings: Hepatitis B virus, HePAD38, 168 h, read-out: Anti-HBV EC50, HepAD38 cells, extracellular HBV DNA by QPCR, 7 days of incubation
In short: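 Seven-day compound exposure (30 μM down to 10 nM, half-log steps) after tetracycline withdrawal induced HBV replication in HepAD38 cells. Extracellular viral DNA measured by QPCR (copies/mL via standard curve), normalised to DMSO wells; EC50 from 4-parameter non-linear regression.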

[2] = In vitro cytotoxicity, MTT cell viability assay in HepG2 cells; type: cell-based; settings: human, Cytotoxicity CC50
In short: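 Parental HepG2 cells in EMEM + 10% FBS were exposed to compounds (8 half-log dilutions, 30 μM to 1.0 nM) for 7 days at 37 °C, 5% CO2. MTT was then added for 3-4 h, formazan dissolved in DMSO and absorbance read at 492 nm; CC50 came from 4-parameter fits against vehicle controls.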

SMILES | EC50 [1] [µM] | CC50 at 7 days [2] [µM]
Cc1cc(NC(=O)c2ccn(C)c2C(F)(F)C(=O)NC(C)C(F)(F)F)ccc1F (stereo not drawn) [Example 112, 2-(1,1-difluoro-2-oxo-2-((1,1,1-trifluoropropan-2-yl)amino)ethyl)-N-(4-fluoro-3-methylphenyl)-1-methyl-1H-pyrrole-3-carboxamide] | > 30 | > 30
Cc1cc(NC(=O)c2cn(C)c(C(F)(F)C(=O)NC(C)(C)C)c2C)ccc1F [Example 113, 5-(2-(tert-butylamino)-1,1-difluoro-2-oxoethyl)-N-(4-fluoro-3-methylphenyl)-1,4-dimethyl-1H-pyrrole-3-carboxamide] | < 5 | > 30
Cc1cc(NC(=O)c2c(C)cn(C)c2C(F)(F)C(=O)NC(C)(C)C)ccc1F [Example 114, 2-(2-(tert-butylamino)-1,1-difluoro-2-oxoethyl)-N-(4-fluoro-3-methylphenyl)-1,4-dimethyl-1H-pyrrole-3-carboxamide] | > 30 | > 30
C=Cc1ccc(C(=O)Nc2ccc(F)c(C)c2)cc1C(F)(F)C(=O)N1CCC(O)CC1 [Example 115, 3-(1,1-difluoro-2-(4-hydroxypiperidin-1-yl)-2-oxoethyl)-N-(4-fluoro-3-methylphenyl)-4-vinylbenzamide] | < 5 | > 30
Cc1cc(NC(=O)c2ccc([C@@H](O)CO)c(C(F)(F)C(=O)N3CCC(O)CC3)c2)ccc1F [Example 116, (R)-3-(1,1-difluoro-2-(4-hydroxypiperidin-1-yl)-2-oxoethyl)-4-(1,2-dihydroxyethyl)-N-(4-fluoro-3-methylphenyl)benzamide] | > 30 | > 30
Cc1cc(NC(=O)c2ccc([C@@H](O)CO)c(C(F)(F)C(=O)NC(C)(C)C)c2)ccc1F [Example 117, (R)-3-(2-(tert-butylamino)-1,1-difluoro-2-oxoethyl)-4-(1,2-dihydroxyethyl)-N-(4-fluoro-3-methylphenyl)benzamide] | > 30 | > 30
Cc1cc(NC(=O)c2ccc(F)c(C(F)(F)C(=O)N3CCC(C(=O)O)CC3)c2)ccc1F [Example 118, 1-(2,2-difluoro-2-(2-fluoro-5-((4-fluoro-3-methylphenyl)carbamoyl)phenyl)acetyl)piperidine-4-carboxylic acid] | < 5 | > 30
CC(C)(C)NC(=O)C(O)c1cc(C(=O)Nc2ccc(F)c(F)c2)ccc1F (stereo not drawn) [Example 119, 3-(2-(tert-butylamino)-1-hydroxy-2-oxoethyl)-N-(3,4-difluorophenyl)-4-fluorobenzamide] | 5 to 30 | 5 to 30
O=C(Nc1ccc(F)c(F)c1)c1ccc(F)c(C(O)C(=O)N2CCC(O)CC2)c1 (stereo not drawn) [Example 120, N-(3,4-difluorophenyl)-4-fluoro-3-(1-hydroxy-2-(4-hydroxypiperidin-1-yl)-2-oxoethyl)benzamide] | > 30 | > 30
Cc1cc(NC(=O)c2cc(C(O)C(=O)NC(C)(C)C)cn2C)ccc1F (stereo not drawn) [Example 121, 4-(2-(tert-butylamino)-1-hydroxy-2-oxoethyl)-N-(4-fluoro-3-methylphenyl)-1-methyl-1H-pyrrole-2-carboxamide] | < 5 | > 30
Cc1cc(NC(=O)c2cc(C(F)(F)C(=O)N3CCC(B(O)O)CC3)n(C)c2)ccc1F [Example 122, (1-(2,2-difluoro-2-(4-((4-fluoro-3-methylphenyl)carbamoyl)-1-methyl-1H-pyrrol-2-yl)acetyl)piperidin-4-yl)boronic acid] | 5 to 30 | > 30
Cc1cc(NC(=O)c2cc(C(C)(O)C(=O)NC(C)(C)C)cn2C)ccc1F (stereo not drawn) [Example 123, 4-(1-(tert-butylamino)-2-hydroxy-1-oxopropan-2-yl)-N-(4-fluoro-3-methylphenyl)-1-methyl-1H-pyrrole-2-carboxamide] | 5 to 30 | 5 to 30
